Laboratory results reported in ChEMBL document CHEMBL4196076, “An access to a library of novel triterpene derivatives with a promising pharmacological potential by Ugi and Passerini multicomponent reactions” (Eur J Med Chem, 2018).

Key:
[1] = system: HT-29; test: Cytotoxicity against human HT-29 cells after 96 hrs by sulforhodamine-B assay; assay type: functional, cell-based; settings: HT-29, 96 h
[2] = system: FaDu; test: Cytotoxicity against human FADU cells after 96 hrs by sulforhodamine-B assay; assay type: functional, cell-based
[3] = system: NIH3T3; test: Cytotoxicity against mouse NIH/3T3 cells after 96 hrs by sulforhodamine-B assay; assay type: cell-based; settings: NIH3T3, 96 h
[4] = system: A549; test: Cytotoxicity against human A549 cells after 96 hrs by sulforhodamine-B assay; assay type: functional, cell-based; settings: A549, 96 h
[5] = system: MCF7; test: Cytotoxicity against human MCF7 cells after 96 hrs by sulforhodamine-B assay; assay type: functional, cell-based; settings: MCF7, 96 h
[6] = system: A2780; test: Cytotoxicity against human A2780 cells after 96 hrs by sulforhodamine-B assay; assay type: functional, cell-based; settings: A2780, 96 h
[7] = system: 518A2; test: Cytotoxicity against human 518A2 cells after 96 hrs by sulforhodamine-B assay; assay type: functional, cell-based; settings: 518A2, 96 h

| Compound | EC50 [1] [µM] | EC50 [2] [µM] | EC50 [3] [µM] | EC50 [4] [µM] | EC50 [5] [µM] | EC50 [6] [µM] | EC50 [7] [µM] |
| --- | --- | --- | --- | --- | --- | --- | --- |
| CC(=O)O[C@@H]1C[C@]2(C)[C@H]3CC=C4[C@@H]5CC(C)(C)CC[C@]5(C(=O)O)CC[C@@]4(C)[C@]3(C)CC[C@H]2C(C)(C)[C@H]1OC(C)=O | 25.5 | 21.3 | 12.2 | 18.9 | 1.6 | 10.5 |  |
| C=CCN(CC(=O)NCCCC)C(=O)[C@]12CCC(C)(C)C[C@H]1C1=CC[C@@H]3[C@@]4(C)CC[C@H](OC(C)=O)C(C)(C)[C@@H]4CC[C@@]3(C)[C@]1(C)CC2 | > 30 | 16.1 | > 30 | > 30 | > 30 | 3.1 | 15 |
| CC(=O)O[C@H]1CC[C@]2(C)[C@H]3CC=C4[C@@H]5CC(C)(C)CC[C@]5(C(=O)N(CC(=O)NC(C)(C)C)Cc5cccc(F)c5)CC[C@@]4(C)[C@]3(C)CC[C@H]2C1(C)C | > 30 | > 30 | > 30 | > 30 | > 30 | 10.4 | > 30 |
| CC(=O)O[C@H]1CC[C@]2(C)[C@H]3CC=C4[C@@H]5CC(C)(C)CC[C@]5(C(=O)N(CC(=O)NCc5ccccc5)Cc5ccoc5)CC[C@@]4(C)[C@]3(C)CC[C@H]2C1(C)C | > 30 | 22.1 | > 30 | > 30 | 15 | 6.3 | 15.9 |
| CC(C)NC(=O)CN(Cc1ccoc1)C(=O)[C@]12CCC(C)(C)C[C@H]1C1=CC[C@@H]3[C@@]4(C)CC[C@H](O)C(C)(C)[C@@H]4CC[C@@]3(C)[C@]1(C)CC2 | 4.9 | 7.9 | 5.5 |  | 4.9 | 5.9 | 5.5 |
| CCCCNC(=O)CN(Cc1ccoc1)C(=O)[C@]12CCC(C)(C)C[C@H]1C1=CC[C@@H]3[C@@]4(C)CC[C@H](OC(C)=O)C(C)(C)[C@@H]4CC[C@@]3(C)[C@]1(C)CC2 | > 30 | 17.9 | > 30 | 16.2 | 13.9 | 5.6 | 11.3 |
| CCCCNC(=O)CN(Cc1ccccc1)C(=O)[C@]12CCC(C)(C)C[C@H]1C1=CC[C@@H]3[C@@]4(C)CC[C@H](OC(C)=O)C(C)(C)[C@@H]4CC[C@@]3(C)[C@]1(C)CC2 | > 30 | 22.7 | > 30 | > 30 | 22.1 | 3 | > 30 |
| CC1(C)CC[C@]2(C(=O)O)CC[C@]3(C)C(=CC[C@@H]4[C@@]5(C)CC[C@H](O)C(C)(C)[C@@H]5CC[C@]43C)[C@@H]2C1 [OLEANOLIC_ACID] | 44.9 | 66.7 | 57.9 | 64.1 | 49.1 | 58.2 | 61.3 |
| CC(=O)O[C@H]1CC[C@]2(C)[C@H]3CC=C4[C@@H]5CC(C)(C)CC[C@]5(C(=O)N(C)CC(=O)NC(C)(C)C)CC[C@@]4(C)[C@]3(C)CC[C@H]2C1(C)C | 23.7 | 6.7 | 9.9 |  | 5.7 | 4.1 | 8.8 |
| CC1(C)CC[C@]2(C(=O)O)CC[C@]3(C)C(=CC[C@@H]4[C@@]5(C)C[C@@H](O)[C@H](O)C(C)(C)[C@@H]5CC[C@]43C)[C@@H]2C1 [MASLINIC ACID] |  | 17 |  |  | 37.2 |  |  |
| C=CCN(CC(=O)NCc1ccccc1)C(=O)[C@]12CCC(C)(C)C[C@H]1C1=CC[C@@H]3[C@@]4(C)CC[C@H](O)C(C)(C)[C@@H]4CC[C@@]3(C)[C@]1(C)CC2 | > 30 | > 30 | > 30 | > 30 | > 30 | 12.9 | > 30 |
| CC(=O)O[C@H]1CC[C@]2(C)[C@H]3CC=C4[C@@H]5CC(C)(C)CC[C@]5(C(=O)N(CC(=O)NCc5ccccc5)C(C)C)CC[C@@]4(C)[C@]3(C)CC[C@H]2C1(C)C | 14.1 | 10.1 | 10.2 | 14.9 | 9.7 | 8.3 | 20.9 |
| CC1(C)CC[C@]2(C(=O)N(CC(=O)NCc3ccccc3)Cc3ccccc3)CC[C@]3(C)C(=CC[C@@H]4[C@@]5(C)CC[C@H](O)C(C)(C)[C@@H]5CC[C@]43C)[C@@H]2C1 | > 30 | > 30 | > 30 |  | > 30 | > 30 | > 30 |
| CC1(C)CC[C@]2(C(=O)N(CC(=O)NC(C)(C)C)Cc3ccccc3)CC[C@]3(C)C(=CC[C@@H]4[C@@]5(C)CC[C@H](O)C(C)(C)[C@@H]5CC[C@]43C)[C@@H]2C1 | 11.5 | 17.8 | 8.8 |  | 14.8 | 13.5 | 11.4 |
| CCCCNC(=O)CN(Cc1ccoc1)C(=O)[C@]12CCC(C)(C)C[C@H]1C1=CC[C@@H]3[C@@]4(C)CC[C@H](O)C(C)(C)[C@@H]4CC[C@@]3(C)[C@]1(C)CC2 | 15.9 | > 30 | > 30 |  | 15.5 | 17.6 | > 30 |
| CC1(C)CC[C@]2(C(=O)N(CC(=O)NC(C)(C)C)Cc3cccc(F)c3)CC[C@]3(C)C(=CC[C@@H]4[C@@]5(C)CC[C@H](O)C(C)(C)[C@@H]5CC[C@]43C)[C@@H]2C1 | > 30 | > 30 | > 30 |  | > 30 | > 30 | > 30 |
| CCCCNC(=O)CN(Cc1ccccc1)C(=O)[C@]12CCC(C)(C)C[C@H]1C1=CC[C@@H]3[C@@]4(C)CC[C@H](O)C(C)(C)[C@@H]4CC[C@@]3(C)[C@]1(C)CC2 | > 30 | > 30 | > 30 |  | > 30 | > 30 | > 30 |
| C=CCN(CC(=O)NCc1ccccc1)C(=O)[C@]12CCC(C)(C)C[C@H]1C1=CC[C@@H]3[C@@]4(C)CC[C@H](OC(C)=O)C(C)(C)[C@@H]4CC[C@@]3(C)[C@]1(C)CC2 | > 30 | 15.5 | > 30 |  | 19.2 | 6 | 18.9 |
| CC(C)N(CC(=O)NCc1ccccc1)C(=O)[C@]12CCC(C)(C)C[C@H]1C1=CC[C@@H]3[C@@]4(C)CC[C@H](O)C(C)(C)[C@@H]4CC[C@@]3(C)[C@]1(C)CC2 | > 30 | > 30 | > 30 |  | 19.4 | 15.4 | > 30 |
| C=CCN(CC(=O)NCCCC)C(=O)[C@]12CCC(C)(C)C[C@H]1C1=CC[C@@H]3[C@@]4(C)CC[C@H](O)C(C)(C)[C@@H]4CC[C@@]3(C)[C@]1(C)CC2 | > 30 | > 30 | > 30 |  | 21.3 | 19.3 | > 30 |
| CCCCN(CC(=O)NCc1ccccc1)C(=O)[C@]12CCC(C)(C)C[C@H]1C1=CC[C@@H]3[C@@]4(C)CC[C@H](O)C(C)(C)[C@@H]4CC[C@@]3(C)[C@]1(C)CC2 | 15.6 | > 30 | > 30 |  | 24.6 | > 30 | > 30 |
